Peptide text beside a SMILES is read from it. * marks the point of attachment. Cbz = O=C(OCc1ccccc1)*
How the values were obtained:
cyclin D1 = test: Western blot analysis of cyclin D1 expression in MCF-7 cells; format: cell-based, human; settings: for IC50: western blot data, read-out: IC50 for WB; for effect of co-treatment on TG- and Δ2-TG-induced cyclin D1 ablation: with 40 μM TG or 30 μM Δ2-TG; for effect of co-treatment on TG- and Δ2-TG-induced cyclin D1 ablation / minimum concentration required for the complete ablation of cyclin D1: 24 h; for minimum concentration required for the complete ablation of cyclin D1: 5% FBS
Description: Western Blot Analysis. MCF-7 or MDA-MB-231 cells were seeded in 10% FBS-containing DMEM-F-12 for 24 h and treated with various agents as indicated. After individual treatments for 24 h, both the incubation medium and adherent cells in T-25 or T-75 flasks were scraped and collected by centrifugation at 2,000×g for 10 min. The pellets were recovered, placed on ice, and triturated with 20 to 50 μl of a chilled lysis buffer (M-PER® Mammalian Protein Extraction Reagent, Pierce, Rockford, Ill.) to which was added 1% protease inhibitor cocktail (set III, EMD Biosciences, Inc. San Diego, Calif.). After a 30 min-incubation on ice, the mixture was centrifuge at 16,100×g for 3 min. Two μl of the suspension was taken for protein analysis using the Bradford assay kit (Bio-Rad, Hercules, Calif.). To the remaining solution was added the same volume of 2× SDS-PAGE sample loading buffer (100 mM Tris-HCl, pH 6.8, 4% SDS, 5% β-mercaptoethanol 20% glycerol, and 0.1% bromophenol blue). The mixture was boiled for 10 min. Equal amounts of proteins were loaded onto 10% SDS-PAGE gels. After electrophoresis, protein bands were transferred to nitrocellulose membranes in a semi-dry transfer cell. The transblotted membrane was blocking with TBST [Tris-buffered saline (TBS) containing 0.1% Tween 20] containing 5% nonfat milk for 90 min, and the membrane was incubated with the appropriate primary antibody in TBST-5% nonfat milk at 4° C. overnight. After washing three times with TBST for a total of 45 min, the transblotted membrane was incubated with goat anti-rabbit or anti-mouse IgG-horseradish peroxidase conjugates (diluted 1:1000) for 1 h at room temperature and washed four times with TBST for a total of 1 h. The immunoblots were visualized by enhanced chemiluminescence.

MCF-7 cells = test: MTT cell viability assay; format: cell-based; settings: Homo sapiens, MCF7, cell viability data, read-out: IC50 for MTT
Description: Cell viability analysis. The effect of individual test agents on cell viability was assessed by using the MTT [3-(4,5-dimethylthiazol-2-yl)-2,5-diphenyl-2H-tetrazolium bromide] assay in six replicates. Cells were seeded and incubated in 96-well, flat-bottomed plates in DMEM-F12 media with 10% FBS for 24 h, and were exposed to various concentrations of test agents dissolved in DMSO (final DMSO concentration, 0.1%) in 5% FBS-supplemented DMEM-F12 medium. Controls received DMSO vehicle at a concentration equal to that of drug-treated cells. The medium was removed, replaced by 200 μl of 0.5 mg/ml of MTT in 10% FBS-containing RPMI-1640 medium, and cells were incubated in the CO2 incubator at 37° C. for 2 h. Supernatants were removed from the wells, and the reduced MTT dye was solubilized in 200 μl/well DMSO. Absorbance at 570 nm was determined on a plate reader.

| SMILES | IC50 (cyclin D1) [µM] | IC50 (MCF-7 cells) [µM] | further results |
| --- | --- | --- | --- |
| Cc1c(C)c2c(c(C)c1OCc1ccccc1)CCC(C)(COc1ccc(/C=C3\SC(=O)NC3=O)cc1)O2 (stereo not drawn) [TG-12] | – | 16.7 | – |
| CC(=O)N[C@@H](CSC(=O)[C@]1([C@@H](O)C(C)C)NC(=O)[C@H](C)[C@@H]1O)C(=O)O [lactacystin, reference compound] | – | – | effect of co-treatment on TG- and Δ2-TG-induced cyclin D1 ablation (cyclin D1): effective in rescuing |
| C=CCOc1c(C)c(C)c2c(c1C)CCC(C)(COc1ccc(/C=C3\SC(=O)NC3=O)cc1Br)O2 (stereo not drawn) [TG-27] | > 7.5 | 28 | – |
| Cc1c(C)c2c(c(C)c1OC/C=C/c1ccccc1)CCC(C)(COc1ccc(/C=C3\SC(=O)NC3=O)cc1Br)O2 (stereo not drawn) [TG-11] | > 7.5 | 28.5 | – |
| CC(C)=CCOc1c(C)c(C)c2c(c1C)CCC(C)(COc1ccc(/C=C3\SC(=O)NC3=O)cc1)O2 (stereo not drawn) [TG-14] | 7 | 14.5 | – |
| C=CCOc1c(C)c(C)c2c(c1C)CCC(C)(COc1ccc(/C=C3\SC(=O)N(CC(=O)OC)C3=O)cc1)O2 (stereo not drawn) [TG-9] | > 7.5 | > 50 | – |
| C=CCOc1c(C)c(C)c2c(c1C)CCC(C)(COc1ccc(/C=C3\SC(=S)NC3=O)cc1)O2 (stereo not drawn) [TG-3] | 3.5 | 11 | – |
| CC(C)C[C@@H](C=O)NC(=O)[C@H](CC(C)C)NC(=O)[C@H](CC(C)C)NC(=O)OCc1ccccc1 [MG132, reference compound] (Cbz-Leu-Leu-Leu-aldehyde) | – | – | effect of co-treatment on Δ2-TG-6 cyclin D1 ablation (cyclin D1; FIG. 8C): could be blocked; effect of co-treatment on TG- and Δ2-TG-induced cyclin D1 ablation (cyclin D1): effective in rescuing |
| C=CCOc1c(C)c(C)c2c(c1C)CCC(C)(COc1ccc(/C=C3\SC(=O)NC3=O)cc1OC)O2 (stereo not drawn) [TG-28] | – | 14.5 | – |
| Cc1c(C)c2c(c(C)c1OC/C=C/c1ccccc1)CCC(C)(COc1ccc(/C=C3\SC(=O)NC3=O)cc1)O2 (stereo not drawn) [TG-10] | > 7.5 | 19 | – |
| Cn1cc(C2=C(c3ccc(Cl)cc3Cl)C(=O)NC2=O)c2ccccc21 [SB216763, reference compound] | – | – | effect of co-treatment on TG- and Δ2-TG-induced cyclin D1 ablation (cyclin D1): could not rescue |
| CC[C@H](C)[C@H](NC(=O)[C@H]([C@@H](C)CC)N(C)C(C)=O)C(=O)N[C@H](C(=O)N[C@@H](CC(C)C)C(=O)[C@@]1(C)CO1)[C@@H](C)O [epoxomicin, reference compound] | – | – | effect of co-treatment on TG- and Δ2-TG-induced cyclin D1 ablation (cyclin D1): effective in rescuing |
| CC(C)=CCOc1c(C)c(C)c2c(c1C)CCC(C)(COc1ccc(/C=C3\SC(=O)NC3=O)cc1C)O2 (stereo not drawn) [TG-17] | – | 14.5 | – |
| O=C1NC(=O)/C(=C/c2ccc(OCC3CCc4ccccc4C3)cc2)S1 (stereo not drawn) [TG-15] | – | 37 | – |
| O=C(Nc1ccccc1)c1cc([N+](=O)[O-])ccc1Cl [GW9962, reference compound] | – | – | effect of co-treatment on TG-mediated cyclin D1 down-regulation (cyclin D1; concentrations three orders of magnitude higher than the IC50 in PPARγ binding): did not prevent; effect on cyclin D1 expression (cyclin D1; high doses / comparable concentrations): no appreciable effect |
| CC1(COc2ccc(CC3SC(=O)NC3=O)cc2)CCCCC1 (stereo not drawn) [CG, ciglitazone, reference compound] | – | – | minimum concentration required for the complete ablation of cyclin D1 (cyclin D1): 50 µM |
| Cc1c(C)c2c(c(C)c1OC(=O)CCC(=O)O)CCC(C)(COc1ccc(/C=C3\SC(=O)NC3=O)cc1)O2 (stereo not drawn) [TG-13] | > 7.5 | > 50 | – |
| Cc1c(C)c2c(c(C)c1O)CCC(C)(COc1ccc(CC3SC(=O)NC3=O)cc1)O2 (stereo not drawn) [TG, troglitazone, reference compound] | – | – | time of complete ablation of cyclin D1 (cyclin D1; 40 μM TG, 30 μM Δ2-TG): 24 h; minimum concentration required for the complete ablation of cyclin D1 (cyclin D1): 40 µM |
| C=CCOc1c(C)c(C)c2c(c1C)CCC(C)(COc1ccc(/C=C3\SC(=O)NC3=O)cc1C)O2 (stereo not drawn) [TG-29] | – | 23.5 | – |
| COc1cc(/C=C2\SC(=O)NC2=O)ccc1OCC1(C)CCc2c(C)c(OCC=C(C)C)c(C)c(C)c2O1 (stereo not drawn) [TG-16] | – | 15 | – |

Now from value to compound, other results behind:

| IC50 (cyclin D1) [µM] | IC50 (MCF-7 cells) [µM] | SMILES | further results |
| --- | --- | --- | --- |
| > 7.5 | > 50 | CC(C)=CCOc1c(C)c(C)c2c(c1C)CCC(C)(COc1ccc(/C=C3\SC(=O)NC3=O)cc1-c1ccc(C(F)(F)F)cc1)O2 (stereo not drawn) [TG-31] | – |
| – | 38 | CC(C)=CCOc1c(C)c(C)c2c(c1C)CCC(C)(COc1ccc(/C=C3\SC(=O)NC3=O)cc1[N+](=O)[O-])O2 (stereo not drawn) [TG-35] | – |
| – | 10.5 | C=CCOc1c(C)c(C)c2c(c1C)CCC(C)(COc1c(C)cc(/C=C3\SC(=O)NC3=O)cc1C)O2 (stereo not drawn) [TG-52] | – |
| – | > 50 | CCOC(=O)C(C)(C)C(O)c1ccc(OCC2(C)CCc3c(C)c(OCC=C(C)C)c(C)c(C)c3O2)c(Br)c1 (stereo not drawn) [TG-38] | – |
| – | 12.5 | CC(C)=CCOc1c(C)c(C)c2c(c1C)CCC(C)(COc1ccc(/C=C3\SC(=O)NC3=O)cc1F)O2 (stereo not drawn) [TG-30] | – |
| > 7.5 | > 50 | CCc1ccc(-c2cc(/C=C3\SC(=O)NC3=O)ccc2OCC2(C)CCc3c(C)c(OCC=C(C)C)c(C)c(C)c3O2)cc1 (stereo not drawn) [TG-33] | – |
| > 7.5 | 46 | CC(C)=CCOc1c(C)c(C)c2c(c1C)CCC(C)(COc1ccc(C(O)C(C)(C)C(=O)O)cc1Br)O2 (stereo not drawn) [TG-39] | – |
| – | 13 | CCOc1cc(/C=C2\SC(=O)NC2=O)ccc1OCC1(C)CCc2c(C)c(OCC=C(C)C)c(C)c(C)c2O1 (stereo not drawn) [TG-45] | – |
| – | 14.5 | CC(C)=CCOc1c(C)c(C)c2c(c1C)CCC(C)(COc1ccc(/C=C3\SC(=O)NC3=O)c3ccccc13)O2 (stereo not drawn) [TG-43] | – |
| > 7.5 | > 50 | CC(C)=CCOc1c(C)c(C)c2c(c1C)CCC(C)(COc1ccc(C=C(C#N)C#N)cc1Br)O2 (stereo not drawn) [TG-36] | – |
| – | 17.5 | C=CCOc1c(C)c(C)c2c(c1C)CCC(C)(COc1c(Br)cc(/C=C3\SC(=O)NC3=O)cc1OC)O2 (stereo not drawn) [TG-54] | – |
| > 7.5 | 19.5 | CC(C)=CCOc1c(C)c(C)c2c(c1C)CCC(C)(COc1ccc(/C=C3\SC(=O)NC3=O)cc1-c1ccc(F)cc1)O2 (stereo not drawn) [TG-32] | – |
| > 7.5 | > 50 | CCOC(=O)C(=Cc1ccc(OCC2(C)CCc3c(C)c(OCC=C(C)C)c(C)c(C)c3O2)c(Br)c1)C(=O)OCC (stereo not drawn) [TG-41] | – |
| > 7.5 | 14.5 | COc1cc(/C=C2\SC(=O)NC2=O)cc(Br)c1OCC1(C)CCc2c(C)c(OCC=C(C)C)c(C)c(C)c2O1 (stereo not drawn) [TG-44] | – |
| > 7.5 | 17 | C=CCOc1c(C)c(C)c2c(c1C)CCC(C)(COc1ccc(/C=C3\SC(=O)NC3=O)cc1OCC)O2 (stereo not drawn) [TG-55] | – |
| > 7.5 | 14.5 | CC(C)=CCOc1c(C)c(C)c2c(c1C)CCC(C)(COc1ccc(/C=C3\SC(=O)NC3=O)cc1Br)O2 (stereo not drawn) [TG-88] | – |
| – | 15.5 | CC(C)=CCOc1c(C)c(C)c2c(c1C)CCC(C)(COc1c(Br)cc(/C=C3\SC(=O)NC3=O)cc1Br)O2 (stereo not drawn) [TG-34] | – |
| – | 37.3 | CC(C)=CCOc1c(C)c(C)c2c(c1C)CCC(C)(COc1ccc(/C=C3\SC(=S)NC3=O)c3ccccc13)O2 (stereo not drawn) [TG-46] | – |
| > 7.5 | > 50 | CC(C)=CCOc1c(C)c(C)c2c(c1C)CCC(C)(COc1ccc(C=C(C(=O)O)C(=O)O)cc1Br)O2 (stereo not drawn) [TG-42] | – |
| – | 40 | C=CCOc1c(C)c(C)c2c(c1C)CCC(C)(COc1cccc(/C=C3\SC(=O)NC3=O)c1)O2 (stereo not drawn) [TG-51] | – |
| – | 14.5 | C=CCOc1c(C)c(C)c2c(c1C)CCC(C)(COc1ccc(/C=C3\SC(=O)NC3=O)c3ccccc13)O2 (stereo not drawn) [TG-53] | – |
| > 7.5 | 34 | CC(C)=CCOc1c(C)c(C)c2c(c1C)CCC(C)(COc1ccc(/C=C/C(=O)O)cc1Br)O2 (stereo not drawn) [TG-37] | – |

Reference: patent publication US7566787B2, “Small molecule cyclin D1 ablative agents” (The Ohio State University, priority 2004, dated 2009)
